Consider seven compounds from patent US6656499B1, “Composition for transdermal and dermal administration of interferon-α” (PharmaDerm Laboratories, Ltd., priority 1999, dated 2003).

The nature of data set [1]: In vitro diffusion of IFN-α into human skin, flow-through diffusion cells, antiviral bioassay of skin homogenate. As to conditions: Biphasic lipid vesicles + acylated amino acid + IFN-α, 24 hours, n = 4.
For data set [2] the following is noted: guinea pigs, lipid vesicle patch 24 hours, FIG. 1A, vs untreated control animals.
Data set [3] is described as follows: Antiviral activity in serum of human subjects after transdermal patch. As to conditions: individual subjects in each treatment group (5, 15, 40 MU), before vs after 48 hours patch, FIGS. 4A-4C.
Data set [4] can be described thus: Immunohistochemistry of skin biopsies with anti-IFN-α antibodies. The data set is classed as in vivo, human. Particulars: 40 MU group, treated skin site vs untreated skin. The text has this: The skin biopsy taken from the site of application of the biphasic lipid vesicle-containing transdermal patch of each test subject was processed for immunohistochemistry. A skin sample from a representative individual in the treatment group receiving 40 MU IFN-α was compared visually to a skin section of control, untreated skin after staining both samples with anti-IFN-α antibodies. […] This staining pattern was characteristic in all volunteers in this treatment group.
Sections 5 μm in thickness were cut and after antigen retrieval with 10 mM Na-citrate the sections were incubated with mouse anti-human interferon alpha antibody (1:2,000-1:5,000), which were in turn treated with a biotinylated rabbit anti-mouse secondary antibody and stained by the Avidin Biotin Complex (ABC) method.

Data set [5] has as its system Ki67 nuclear protein in proliferating cells. Put plainly: Anti-proliferation assay on skin sections of human volunteers (Ki67 staining). The data set is classed as in vivo. As to conditions: for Average % decrease of proliferative cells stained by anti-Ki67 antibody: 48 hours. The text has this: Skin sections were also stained for Ki67 nuclear protein in proliferating cells using anti-M1B1 monoclonal antibodies (Rose et al., J. Clin. Pathol., 47:1010 (1994)) and visualized.
The number of stained cells were counted before and after treatment sections. The decreased number of stained cells were expressed as a percentage.

For data set [6] the following is noted: human, in vivo.
Description: The human subjects were divided randomly into three groups for treatment with a transdermal patch containing a lipid vesicle compositions at one of the three IFN-α concentrations. […] After treatment with the placebo, skin biopsies and blood samples were collected from each subject. In Phase II of the study, each subject was treated with a transdermal patch containing IFN-α entrapped in biphasic lipid vesicles at one of the three concentrations: 5 MU/g formulation/patch, 15 MU/g formulation/patch or 40 MU/g formulation/patch. After treatment for 48 hours, skin biopsies and blood samples were taken and analyzed. The biopsy samples were analyzed by immunohistochemistry, antiviral assay, ELISA and 2-5A synthetase assays. The blood samples were used to prepare serum for the antiviral and ELISA assays and to extract peripheral blood mononuclear cells for the 2-5A synthetase assay.
To determine IFN-α concentration in skin homogenates, Cytoscreen™ ELISA kit (Medicorp, Montreal, PQ) was used. The sensitivity of the assay is <25 pg/mL and the range of concentration is 0-500 pg/mL. The assay is specific for human IFN-α with no cross-reactivity with human IFNβ, IFNγ or IFNω. The results are expressed as pg IFN-α/mg skin.
Seventeen human volunteers were randomized into three treatment groups. […]
Data set [7] has as its system 2-5A synthetase. Put plainly: 2-5A synthetase enzyme activity in PBMC of treated human subjects. Type of data set: in vivo. Particulars: all three treatment groups compared to their untreated controls (p<0.05). As to the method: The experimental protocol is set forth in Example 5C.
Induction of 2-5A synthetase enzyme activity in peripheral blood mononuclear cells (PBMC) was used as an indication for the systemic delivery of IFN-α from biphasic delivery systems.
2-5A synthetase was determined by a ^125I-2-5A radioimmuno assay kit (Eiken Chemical Corp., Tokyo, Japan) using rabbit anti-human 2-5A antibody and goat antirabbit IgG as secondary antibody. Briefly, 2-5A synthetase was extracted from the samples by poly (I) poly (C) agarose for 10 min. After the addition of ATP solution (24 μg/mL) and incubation, 100 μL ^125I-2-5A was added, followed by the primary and secondary antibody. Radioactivity bound was determined by gamma counting. 2-5A synthetase is measured as pmol 2-5A produced/100 mL/h and subsequently expressed as nmole enzyme/mg protein 1 h in skin homogenate. All samples were run in duplicates.

Turning to `CCCCCCCCCCCCCCCCCCCC(=O)N[C@@H](CO)C(=O)O` [PDM3, N-eicosanoyl-L-serine], the “Average Amount of IFN-α in skin” value in data set [1] was 2022 ± 1046 U/mg protein. For the same compound, the “serum antiviral activity / transdermal skin penetration (in words)” value in data set [2] is listed as “significant increase”.
With `CCCCCCCCCCCC(=O)NCCCC[C@H](N)C(=O)O` [MLL, Lauroyl lysine], the “Average Amount of IFN-α in skin” value in data set [1] is 250 ± 112 U/mg protein.
Same read-out and setting: with `CCCCCCCC(=O)N[C@H](C(=O)OC)[C@@H](C)O` [PDM1, N-capryloyl-L-threonine methyl ester] the figure was 290 ± 172 U/mg protein; with `CCCCCCCCCCCC(=O)NCCCC[C@H](NC(=O)CCCCCCCCCCC)C(=O)OC` [PDM18, Nα lauroyl-Nε Lauroyl-L- lysine methyl ester], 84 ± 52 U/mg protein; with `CCCCCCCCCCCCCCCCCCCC(=O)N[C@H](C(=O)O)[C@@H](C)O` [PDM4, N-eicosanoyl threonine], 1707 ± 538 U/mg protein.
The same measure, in the same setting: for `CCCCCCCCCCCCCCCC(=O)N[C@@H](CCCCNC(=O)CCCCCCCCCCC)C(=O)OC` [PDM17, Nα-palmitoyl-Nε Lauroyl-L- lysine methyl ester] the value was 540 ± 239 U/mg protein.
As for IFN-α, the “serum antiviral activity (in words)” value in data set [3] is “significant increase”. The “IFN-α specific immunostaining of skin section (in words)” value in data set [4] is “IFN-α specific immunostaining throughout the stratum corneum, epidermis and dermis”. Moreover, the “Average % decrease of proliferative cells stained by anti-Ki67 antibody” value in data set [5] (Dose 5 MU, compared to placebo treated skin) is given as 14%; in data set [5] (Dose 15 MU, compared to placebo treated skin) it was 10%; in data set [5] (Dose 40 MU, compared to untreated skin), 38%. Also, the anti-proliferative ratio in data set [5] (Dose 5 MU, proliferating cells in placebo treated skin / after treatment) is reported as 1.21; in data set [5] (Dose 15 MU, proliferating cells in placebo treated skin / after treatment), 1.32; in data set [5] (Dose 40 MU, proliferating cells in untreated skin / after treatment), 2. Also, the “Ki67 staining of skin sections, anti-proliferative effect (in words)” value in data set [5] (skin treated with IFN-α) was “decreased staining”. In addition, in data set [6], the “further increase in IFN-α levels in skin homogenates (in words)” value was “No significant further increase”. For the same compound, in data set [6], the “increase in IFN-α levels in post-treatment skin homogenates (ELISA)” value is reported as 3 fold. Moreover, the “induction in 2-5A synthetase enzyme activity (in words)” value in data set [7] is reported as “significant induction”.
